System: patients with type 2 diabetes at high vascular risk
Assay: Cardiovascular and Renal Outcomes Trial: linagliptin 5 mg once daily vs placebo on top of standard of care
Assay type: in vivo
Details: for Hazard ratio for hospitalised heart failure: vs placebo
Method: The effect of linagliptin on cardiovascular risk in adult patients with type 2 diabetes mellitus and with increased CV risk evidenced by a history of established macrovascular or renal disease (e.g. as defined herein) was evaluated in a multi-center, multi-national, randomized, double-blind parallel group trial. The trial compared the risk of experiencing a major adverse cardiovascular event (MACE) between linagliptin and placebo when these were added to and used concomitantly with standard of care treatments for diabetes (HbA1c), cardiovascular risk factors and renal disease.
The primary endpoint in this trial was the time to first occurrence of three point (3P) MACE. A major adverse cardiac event was defined as a cardiovascular death or a nonfatal myocardial infarction (MI) or a nonfatal stroke. The statistical analysis plan tested for non-inferiority for the occurrence of (3P) MACE. […] The secondary endpoint was a renal composite, defined as renal death or sustained end stage renal disease or sustained decrease of 40% or more in eGFR.
Type 2 diabetes patient with insufficient glycemic control (naïve or pre-treated with any antidiabetic background medication, excluding treatment with GLP-1 receptor agonists, DPP-4inhibitors or SGLT-2 inhibitors if ≥consecutive 7 days, e.g. having HbA1c 6.5-10%), and high risk of cardiovascular events, e.g. defined by: • albuminuria (micro or macro) and previous macrovascular disease: e.g. defined according to Condition I as indicated below; • and/or • impaired renal function: e.g. as defined according to Condition II as indicated below;
Background and aims: People with type 2 diabetes (T2D) are at increased risk for hospitalization for heart failure (hHF), particularly in the setting of concomitant cardiovascular (CV) and/or kidney disease. […] Here we present analyses of HF outcomes with the DPP-4 inhibitor linagliptin (LINA) vs. placebo (PBO) from a Cardiovascular and Renal Outcomes Trial assessing cardiovascular safety and renal microvascular outcome in patients with type 2 diabetes at high vascular risk, a large CV outcomes trial that enrolled participants with T2D at high risk for hHF due to concomitant CV and/or chronic kidney disease. Materials and methods: People with T2D and concomitant CV and/or kidney disease were randomized to receive LINA 5 mg, or PBO once daily (1:1), on top of standard of care. All hHF, CV outcomes, and deaths were centrally adjudicated, with individual and composite HF-related outcomes analyses comparing LINA vs. placebo. Investigator-reported HF-related adverse events, whether or not confirmed by adjudication, were also analyzed. A Cox proportional hazards model adjusting for region and history of HF was used for analyses of first events. Recurrent hHF events were analyzed using a negative binomial model.
Methods: The present Cardiovascular and Renal Outcomes Trial randomized people with T2D and i) concomitant CV disease with UACR >30 mg/g or ii) prevalent CKD (i.e. GFR <45 ml/min/1.73m2 and/or UACR >200 mg/g) to receive the DPP-4 inhibitor linagliptin (5 mg) or placebo once daily in a double-blind fashion. The primary CV endpoint was 3P-MACE, with a key secondary kidney endpoint (adjudicated ESKD, renal death, or sustained ≥40% decrease in eGFR from baseline) and other renal outcomes (including albuminuria and eGFR slope) also assessed. Subgroups were assessed by baseline kidney function (eGFR ≥/<45 ml/min/1.73m2and eGFR ≥/<30, 45 or 60 ml/min/1.73m2).
Adults with type 2 diabetes, HbA1c 6.5-10.0% inclusive, and high CV risk were eligible for inclusion. […] Macrovascular disease eligibility criteria was based on documented and confirmed history of myocardial infarction, coronary artery disease, stroke, carotid artery disease, or peripheral artery disease. Participants with end-stage kidney disease (ESKD), defined as eGFR <15 or requiring maintenance dialysis, were excluded.

[1] = Urine albumin-to-creatinine ratio 30 to 300 mg/g
[2] = Urine albumin-to-creatinine ratio <30 mg/g
[3] = Urine albumin-to-creatinine ratio >300 mg/g

## CC#CCn1c(N2CCC[C@@H](N)C2)nc2c1c(=O)n(Cc1nc(C)c3ccccc3n1)c(=O)n2C [Linagliptin, 1-[(4-methyl-quinazolin-2-yl)methyl]-3-methyl-7-(2-butyn-1-yl)-8-(3-(R)-amino-piperidin-1-yl)-xanthine]
Race Other
  3-point MACE: hazard ratio vs placebo: 1.86
  3-point MACE: patients with event/patients analyzed: 23/166
  Key secondary kidney outcome: hazard ratio vs placebo: 1.16
  Key secondary kidney outcome: patients with event/patients analyzed: 23/166
  Patients with event/patients analysed, hospitalised heart failure: 6/166
Race White
  3-point MACE: hazard ratio vs placebo: 0.97
  3-point MACE: patients with event/patients analyzed: 340/2827
  Key secondary kidney outcome: hazard ratio vs placebo: 1.03
  Key secondary kidney outcome: patients with event/patients analyzed: 237/2827
  Patients with event/patients analysed, hospitalised heart failure: 174/2827
Region Asia
  3-point MACE: hazard ratio vs placebo: 0.90
  3-point MACE: patients with event/patients analyzed: 29/272
  Key secondary kidney outcome: hazard ratio vs placebo: 0.96
  Key secondary kidney outcome: patients with event/patients analyzed: 29/272
  Patients with event/patients analysed, hospitalised heart failure: 12/272
  Hazard ratio for hospitalised heart failure: 0.47
Region Europe + South Africa
  3-point MACE: hazard ratio vs placebo: 0.92
  3-point MACE: patients with event/patients analyzed: 182/1473
  Key secondary kidney outcome: hazard ratio vs placebo: 0.96
  Key secondary kidney outcome: patients with event/patients analyzed: 98/1473
  Patients with event/patients analysed, hospitalised heart failure: 101/1473
  Hazard ratio for hospitalised heart failure: 1.13
Region Latin America
  3-point MACE: hazard ratio vs placebo: 1.10
  3-point MACE: patients with event/patients analyzed: 132/1156
  Key secondary kidney outcome: hazard ratio vs placebo: 1.07
  Key secondary kidney outcome: patients with event/patients analyzed: 149/1156
  Patients with event/patients analysed, hospitalised heart failure: 54/1156
  Hazard ratio for hospitalised heart failure: 0.99
Region North America
  3-point MACE: hazard ratio vs placebo: 1.25
  3-point MACE: patients with event/patients analyzed: 91/593
  Key secondary kidney outcome: hazard ratio vs placebo: 1.19
  Key secondary kidney outcome: patients with event/patients analyzed: 51/593
  Patients with event/patients analysed, hospitalised heart failure: 42/593
  Hazard ratio for hospitalised heart failure: 0.65
SBP 140 mmHg or DBP ≥90 mmHg
  Key secondary kidney outcome: hazard ratio vs placebo: 1.08
  Key secondary kidney outcome: patients with event/patients analyzed: 222/1800
SBP <140 mmHg and DBP <90 mmHg
  3-point MACE: hazard ratio vs placebo: 0.93
  3-point MACE: patients with event/patients analyzed: 185/1694
  Key secondary kidney outcome: hazard ratio vs placebo: 0.99
  Key secondary kidney outcome: patients with event/patients analyzed: 105/1694
SBP ≥140 mmHg or DBP ≥90 mmHg
  3-point MACE: hazard ratio vs placebo: 1.11
  3-point MACE: patients with event/patients analyzed: 249/1800
Sulfonylurea No
  3-point MACE: hazard ratio vs placebo: 0.98
  3-point MACE: patients with event/patients analyzed: 315/2392
  Key secondary kidney outcome: hazard ratio vs placebo: 1.10
  Key secondary kidney outcome: patients with event/patients analyzed: 252/2392
  Patients with event/patients analysed, hospitalised heart failure: 166/2392
  Hazard ratio for hospitalised heart failure: 0.92
Sulfonylurea Yes
  3-point MACE: hazard ratio vs placebo: 1.15
  3-point MACE: patients with event/patients analyzed: 119/1102
  Key secondary kidney outcome: hazard ratio vs placebo: 0.87
  Key secondary kidney outcome: patients with event/patients analyzed: 75/1102
  Patients with event/patients analysed, hospitalised heart failure: 43/1102
  Hazard ratio for hospitalised heart failure: 0.82
Table 6
  Composite microvascular endpoint: patients, %: (36.3) %
  ESKD (component of kidney composite outcome): %: (0.03) %
  ESKD (component of kidney composite outcome): no.: 1
  Renal death, sustained ESKD, or sustained decrease of 50% or more in eGFR from baseline: %: (7.5) %
  Renal death, sustained ESKD, or sustained decrease of 50% or more in eGFR from baseline: no.: 263
  Sustained decrease of 40% or more in eGFR (component of kidney composite outcome): %: (1.8) %
  Sustained decrease of 40% or more in eGFR (component of kidney composite outcome): no.: 63
Table 9
  Composite microvascular outcome: number of patients, % of n = 3494: 22.5%
UACR 30 to 300 mg/g
  3-point MACE: hazard ratio vs placebo: 0.95
  3-point MACE: patients with event/patients analyzed: 158/1463
  Key secondary kidney outcome: hazard ratio vs placebo: 1.30
  Key secondary kidney outcome: patients with event/patients analyzed: 53/1463
UACR <30 mg/g
  3-point MACE: hazard ratio vs placebo: 1.10
  3-point MACE: patients with event/patients analyzed: 67/696
  Key secondary kidney outcome: hazard ratio vs placebo: 1.46
  Key secondary kidney outcome: patients with event/patients analyzed: 22/696
UACR >300 mg/g
  3-point MACE: hazard ratio vs placebo: 1.06
  3-point MACE: patients with event/patients analyzed: 208/1333
  Key secondary kidney outcome: hazard ratio vs placebo: 0.97
  Key secondary kidney outcome: patients with event/patients analyzed: 252/1333
[1]
  Patients with event/patients analysed, hospitalised heart failure: 72/1463
  Hazard ratio for hospitalised heart failure: 0.86
[2]
  Patients with event/patients analysed, hospitalised heart failure: 26/696
  Hazard ratio for hospitalised heart failure: 0.76
[3]
  Patients with event/patients analysed, hospitalised heart failure: 111/1333
  Hazard ratio for hospitalised heart failure: 0.99
Across GFR categories
  HbA1c vs PBO across all GFR categories, in words: reduced significantly
  Risk for hypoglycemia vs PBO across all GFR categories, in words: without increased risk for hypoglycemia
Across eGFR categories
  Progression of albuminuria across all eGFR categories, in words: consistent beneficial effect
All patients
  3P-MACE: incidence rate per 1000 PY: 57.7 per 1000 patient years

— patent US20240398817A1, “CARDIO- AND RENOSAFE ANTIDIABETIC THERAPY” (priority 2018, published 2024)
